In US8318504B2, “MRP2 efflux pathway prognostic method” (priority 2009, dated 2012):
Like-named read-outs stand apart in the source and are kept apart here.

Tests used:
[1] = Biliary secretion study of CLF in wild type, Abcc2-/- and Abcc3-/- mice; format: in vivo; conditions: FVB, mouse, blood, intravenous, 100 μL of 1 mmol/L CLF, 120 minutes after administration, read-out: blood levels of CLF
Description: (§1) Mice received 100 μL of 1 mmol/L CLF by injection in the tail vein. Data represent means±SD. Plasma levels are expressed in nmol/L and levels in urine, liver and bile as percentage of administered dose. Significance was tested using two-sided Student's t-test: *P<0.05 for Abcc2^-/- vs wild type mice. Data represent means±SD. Abcc2^-/- mice (against a Friend virus B-type (FVB) background) were bred at the National Cancer Institute (Amsterdam, The Netherlands). Production and characterization of the Abcc2^-/- mice was as described by […] et al. [J Pharmacol Exp Ther 2006 July; 318(1):319-327]. Wild type and Abcc3^-/- mice (against an FVB background) were bred at the animal institute of the Academic Medical Center. Production and characterization of the Abcc3^-/- mice was as described by Zelcer et al. [J Hepatol 2006 April; 44(4):768-775]. For biliary secretion studies, the gall bladder was cannulated with PE10 polyethylene tubing and 100 μL (1 mmol/L) CLF was injected in the tail vein. Bile was collected in 10 minutes fractions; liver and blood were harvested at the end of the experiment. Homogenised livers were deproteinised by adding 2 volumes of MeOH, and bile and blood samples were diluted with 0.1% Triton-X-100. The amount CLF was quantitated by measurement of fluorescence as described above.

[2] = system: Abcc2 and Abcc3; assay: as above; format: in vivo; conditions: for cumulative biliary excretion of CLF / hepatic retention of CLF: 120 minutes after administration
Description: as §1

[3] = target: T1, ABCG2 (Homo sapiens, UniProt Q9UNQ0); assay: ATP-dependent transport of CLF into Sf21 membrane vesicles containing ABCG2; format: biochemical; conditions: compared with control vesicles
T1 construct: made in house; host or cells: Sf21 insect cells, baculovirus (gift from Borst); plasma membrane vesicles
T1 sequence (Q9UNQ0 1-655): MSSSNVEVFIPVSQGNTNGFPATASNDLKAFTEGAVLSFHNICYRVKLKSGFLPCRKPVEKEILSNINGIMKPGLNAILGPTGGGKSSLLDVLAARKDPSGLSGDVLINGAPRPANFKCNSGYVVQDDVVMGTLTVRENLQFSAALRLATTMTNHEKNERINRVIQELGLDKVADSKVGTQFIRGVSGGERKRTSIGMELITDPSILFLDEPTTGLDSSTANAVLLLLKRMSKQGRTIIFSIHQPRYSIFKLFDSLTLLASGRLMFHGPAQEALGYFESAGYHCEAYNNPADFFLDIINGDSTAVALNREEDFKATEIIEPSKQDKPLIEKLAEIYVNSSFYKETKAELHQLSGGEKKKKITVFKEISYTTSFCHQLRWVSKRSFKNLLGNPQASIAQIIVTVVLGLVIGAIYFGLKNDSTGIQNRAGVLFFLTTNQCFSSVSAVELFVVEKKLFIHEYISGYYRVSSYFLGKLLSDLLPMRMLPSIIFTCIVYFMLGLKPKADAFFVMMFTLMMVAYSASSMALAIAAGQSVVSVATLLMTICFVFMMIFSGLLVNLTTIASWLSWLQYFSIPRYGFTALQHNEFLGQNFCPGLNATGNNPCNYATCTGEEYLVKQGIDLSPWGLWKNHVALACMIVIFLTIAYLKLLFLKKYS
Description: (§2) The production of recombinant baculovirus was as described by de Waart et al. [Liver Int 2006 April; 26(3):362-368]. ABCC3 and ABCG2-recombinant baculovirus were a kind gift from Borst [Breedveld P. et al., Cancer Res 2004 Aug. 15; 64(16):5804-5811 and Borst P. et al., J Biol Chem 2001 Dec. 7; 276(49):46400-46407.]. ABCB11-recombinant baculovirus was a kind gift from Thompson [Thompson R J et al., Gastroenterology 2002 November; 123(5):1649-1658]. Sf21 cells grown at 27° C. were infected with ABCB11, ABCC2, ABCC3 and ABCG2-cDNA containing baculovirus. Cells were harvested at 2-4 days after infection. Membrane vesicle preparation was as described by de Waart et al. [Liver Int 2006 April; 26(3):362-368].
(§3) Transport studies with membrane vesicles were performed using the rapid filtration technique as described by Heijn M et al. [Am J Physiol 1992 January; 262(1 Pt 1):C104-C110]. Radiolabel was measured with a scintillation counter. When CLF was used as a probe, filters were placed in a glass tube, 0.1% Triton-X-100 was added and the tubes vortexed. Samples were pipetted in 96-well plates (Kartell, Noviglio, Italy) and the amount CLF quantitated by measurement of fluorescence at λexe 485 nm and λcm 520 nm using a NovoStar (BMG-labtech, Offenburg, Germany).

[4] = target: T2, ABCB11 (Homo sapiens, UniProt O95342); assay: ATP-dependent transport of CLF into Sf21 membrane vesicles containing ABCB11; format: biochemical; conditions: compared with control vesicles
T2 construct: His tag (inferred from the anti-his probe used on the Western blot); made in house; host or cells: Sf21 insect cells, baculovirus (gift from Thompson); plasma membrane vesicles
T2 sequence (O95342 whole entry): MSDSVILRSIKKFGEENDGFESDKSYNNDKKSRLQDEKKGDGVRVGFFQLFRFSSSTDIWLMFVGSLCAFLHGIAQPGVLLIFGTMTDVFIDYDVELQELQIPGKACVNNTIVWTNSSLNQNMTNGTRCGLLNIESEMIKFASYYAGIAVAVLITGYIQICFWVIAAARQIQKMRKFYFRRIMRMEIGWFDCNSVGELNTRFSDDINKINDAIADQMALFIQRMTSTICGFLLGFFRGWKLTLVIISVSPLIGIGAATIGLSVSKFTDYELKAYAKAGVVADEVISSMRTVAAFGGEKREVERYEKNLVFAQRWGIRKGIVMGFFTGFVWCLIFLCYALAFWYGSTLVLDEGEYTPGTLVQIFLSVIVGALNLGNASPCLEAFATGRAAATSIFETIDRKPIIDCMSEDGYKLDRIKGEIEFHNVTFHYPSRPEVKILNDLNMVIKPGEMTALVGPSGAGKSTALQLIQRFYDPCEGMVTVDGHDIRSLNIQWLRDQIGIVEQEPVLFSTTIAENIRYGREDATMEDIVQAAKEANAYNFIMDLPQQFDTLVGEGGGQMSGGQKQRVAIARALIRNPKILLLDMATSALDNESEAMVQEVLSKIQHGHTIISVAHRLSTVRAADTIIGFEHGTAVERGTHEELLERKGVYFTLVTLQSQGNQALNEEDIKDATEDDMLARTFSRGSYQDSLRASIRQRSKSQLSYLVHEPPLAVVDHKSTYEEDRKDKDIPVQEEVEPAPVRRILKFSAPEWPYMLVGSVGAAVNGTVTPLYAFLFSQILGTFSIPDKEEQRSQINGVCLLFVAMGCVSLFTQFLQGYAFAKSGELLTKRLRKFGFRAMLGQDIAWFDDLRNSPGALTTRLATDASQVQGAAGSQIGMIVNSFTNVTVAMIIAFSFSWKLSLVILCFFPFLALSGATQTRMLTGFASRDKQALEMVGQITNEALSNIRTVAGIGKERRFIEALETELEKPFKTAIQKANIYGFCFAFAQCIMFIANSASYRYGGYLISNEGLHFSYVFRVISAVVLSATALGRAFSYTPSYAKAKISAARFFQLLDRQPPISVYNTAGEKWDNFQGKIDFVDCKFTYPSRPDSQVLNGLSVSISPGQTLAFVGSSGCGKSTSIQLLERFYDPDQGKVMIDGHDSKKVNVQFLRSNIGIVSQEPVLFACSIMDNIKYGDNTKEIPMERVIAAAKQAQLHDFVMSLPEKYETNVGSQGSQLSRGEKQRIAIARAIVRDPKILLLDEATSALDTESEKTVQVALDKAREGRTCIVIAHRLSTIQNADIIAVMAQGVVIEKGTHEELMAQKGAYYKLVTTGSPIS
Description: as §2, §3

[5] = system: Abcc2 and Abcc3; assay: Plasma clearance of CLF in wild type, Abcc2-/- and Abcc3-/- mice; format: in vivo; conditions: single injection of 100 μL 2 mmol/L CLF in the tail vein
Description: Wild type, Abcc3^−/− and Abcc2^−/− mice received 100 μL of 2 mmol/L CLF by injection in the tail vein. After the indicated time points blood was drawn. Data are expressed as the mean percentage of the initial CLF level at 2 minutes. Significance was tested using two-sided Student's t-test: *P<0.05 for Abcc2−/− vs wild type mice.
Abcc2^−/− mice (against a Friend virus B-type (FVB) background) were bred at the National Cancer Institute (Amsterdam, The Netherlands). Production and characterization of the Abcc2^−/− mice was as described by Vlaming et al. [J Pharmacol Exp Ther 2006 July; 318(1):319-327]. Wild type and Abcc3^−/− mice (against an FVB background) were bred at the animal institute of the Academic Medical Center. Production and characterization of the Abcc3^−/− mice was as described by Zelcer et al. [J Hepatol 2006 April; 44(4):768-775].
Male mice were housed in a pathogen-free animal facility on a 12 hours light-dark cycle. Mice were anesthetized with a combination of Hypnorm (VetaPharma, UK; 11.8 mg/kg fluanisone and 0.37 mg/kg fentanyl-citrate) and diazepam (Centrafarm, Etten-Leur, The Netherlands; 5.9 mg/kg valium). Body temperature was maintained at 36±1° C. on thermostatted heating pads. […] Blood samples were deproteinised by addition of two volumes methanol and the amount CLF in the supernatant was quantitated by measurement of fluorescence as described above.

CC(CCC(=O)NC(CCCCNC(=S)Nc1ccc(-c2c3ccc(=O)cc-3oc3cc(O)ccc23)c(C(=O)O)c1)C(=O)O)C1CCC2C3C(O)CC4CC(O)CCC4(C)C3CC(O)C12C (centres unmarked) [CLF, cholyl lysyl fluorescein]
concentration at 120 min ([1]; Abcc2-/- mice): 1.31 ± 0.749 µM
concentration at 120 min ([1]; wt mice): 0.083 ± 0.021 µM
biliary output of CLF in Abcc3-/- mice in comparison with wild type mice ([2]; 100 μL 1 mmol/L CLF in the tail vein): not affected
CLF dose excreted into bile within 20 minutes ([2]; Abcc2-/- mice, 100 μL 1 mmol/L CLF in the tail vein): less than 2%
cumulative biliary excretion of CLF ([2]; Abcc2-/- mice): 32 % of the administered dose
hepatic retention of CLF ([2]; Abcc2-/- mice): 64 % of the administered dose
plasma and liver CLF contents in Abcc3-/- mice in comparison with wild type mice ([2]; after 2 hours): no differences
CLF dose excreted into bile within 20 minutes ([2]; wild type mice, 100 μL 1 mmol/L CLF in the tail vein): ~70%
cumulative biliary excretion of CLF ([2]; wild type mice): 85 % of the administered dose
hepatic retention of CLF ([2]; wt mice): 1 % of the administered dose
ATP-dependent transport of CLF in ABCG2 containing membrane vesicles [3]: not higher than in control vesicles
ATP-dependent transport of CLF in ABCB11 containing membrane vesicles [4]: not higher than in control vesicles
Plasma clearance of CLF in Abcc2-/- mice in comparison with wild type mice [5]: strongly impaired
Plasma clearance of CLF in Abcc3-/- mice in comparison with wild type mice [5]: not affected
